# Test results: ChEMBL document CHEMBL3885861, “Open TG-GATES”
# Organism: Rattus norvegicus
# Assay: Open TG-GATES - Regimen: Single
# Type: toxicity, organism-based, Sprague-Dawley
# Parameters: regimen Single, gender Male, age 6 weeks
# Conditions: in vivo, po, route gavage; for Hb / Ht / Lym / MCH / MCHC / MCV / Mono / Neu / PT / Plat / RBC / Ret / WBC / APTT / Bas / Eos / Fbg: tissue Blood; for KIDNEY_L / KIDNEY_R / KIDNEY_TOTAL: tissue Kidney; for LIVER: tissue Liver; for ALP / ALT / AST / BUN / CRE / Ca / Cl / DBIL / GLC / IP / K / LDH / Na / PL / RALB / TBIL / TC / TP / gamma-GTP: tissue Plasma
# [1] = 50 mg/kg, 6 h, dose level Middle
# [2] = 50 mg/kg, 9 h, dose level Middle
# [3] = 50 mg/kg, 24 h, dose level Middle
# [4] = 150 mg/kg, 3 h, dose level High
# [5] = 150 mg/kg, 6 h, dose level High
# [6] = 150 mg/kg, 9 h, dose level High
# [7] = 150 mg/kg, 24 h, dose level High
compound,measurement,setting,value
O=P1(N(CCCl)CCCl)NCCCO1 (configuration not stated) [CYCLOPHOSPHAMIDE ANHYDROUS],Hb,[1],12.8 g/dL
same,Ht,[1],37.8%
same,Lym,[1],73.2%
same,MCH,[1],21.1 pg
same,MCHC,[1],33.7%
same,MCV,[1],62.7 fL
same,Mono,[1],2.6%
same,Neu,[1],22.8%
same,PT,[1],14.2 s
same,Plat,[1],115.3 x10_4/uL
same,RBC,[1],603.6 x10_4/ul
same,Ret,[1],8.9%
same,WBC,[1],84.9 x10_2/uL
same,KIDNEY_L,[1],0.9 g
same,KIDNEY_R,[1],0.8 g
same,KIDNEY_TOTAL,[1],1.7 g
same,LIVER,[1],7.5 g
same,ALP,[1],1677 IU/L
same,ALT,[1],35 IU/L
same,AST,[1],72.8 IU/L
same,BUN,[1],9.6 mg/dL
same,CRE,[1],0.2 mg/dL
same,Ca,[1],10.9 mg/dL
same,Cl,[1],106.2 meq/L
same,DBIL,[1],0.016 mg/dL
same,GLC,[1],171.6 mg/dL
same,IP,[1],9.9 mg/dL
same,K,[1],4.4 meq/L
same,LDH,[1],65 IU/L
same,Na,[1],141.4 meq/L
same,PL,[1],134 mg/dL
same,RALB,[1],2.5 g/dL
same,TBIL,[1],0.064 mg/dL
same,TC,[1],72.2 mg/dL
same,TP,[1],5.4 g/dL
same,gamma-GTP,[1],1.4 IU/L
same,TERMINAL_BW,[2],187.4 g
same,APTT,[2],17.8 s
same,Bas,[2],0%
same,Eos,[2],1%
same,Fbg,[2],284.8 mg/dL
same,Hb,[2],12.7 g/dL
same,Ht,[2],37.5%
same,Lym,[2],76%
same,MCH,[2],20.9 pg
same,MCHC,[2],33.8%
same,MCV,[2],61.8 fL
same,Mono,[2],2%
same,Neu,[2],21%
same,PT,[2],14.1 s
same,Plat,[2],112.4 x10_4/uL
same,RBC,[2],606.8 x10_4/ul
same,Ret,[2],9.1%
same,WBC,[2],56.3 x10_2/uL
same,KIDNEY_L,[2],0.8 g
same,KIDNEY_R,[2],0.8 g
same,KIDNEY_TOTAL,[2],1.7 g
same,LIVER,[2],7.1 g
same,ALP,[2],1578.4 IU/L
same,ALT,[2],28.4 IU/L
same,AST,[2],67.4 IU/L
same,BUN,[2],9.6 mg/dL
same,CRE,[2],0.2 mg/dL
same,Ca,[2],10.6 mg/dL
same,Cl,[2],106.8 meq/L
same,DBIL,[2],0.016 mg/dL
same,GLC,[2],177.2 mg/dL
same,IP,[2],10.7 mg/dL
same,K,[2],4.1 meq/L
same,LDH,[2],55.4 IU/L
same,Na,[2],142.8 meq/L
same,PL,[2],125.4 mg/dL
same,RALB,[2],2.5 g/dL
same,TBIL,[2],0.066 mg/dL
same,TC,[2],73.8 mg/dL
same,TP,[2],5.3 g/dL
same,gamma-GTP,[2],1.6 IU/L
same,TERMINAL_BW,[3],200.3 g
same,APTT,[3],24.4 s
same,Bas,[3],0%
same,Eos,[3],1%
same,Fbg,[3],285.8 mg/dL
same,Hb,[3],13 g/dL
same,Ht,[3],38.7%
same,Lym,[3],80.8%
same,MCH,[3],20.8 pg
same,MCHC,[3],33.5%
same,MCV,[3],62 fL
same,Mono,[3],2.4%
same,Neu,[3],15.4%
same,PT,[3],14.5 s
same,Plat,[3],114 x10_4/uL
same,RBC,[3],624.4 x10_4/ul
same,Ret,[3],5.5%
same,WBC,[3],30.3 x10_2/uL
same,KIDNEY_L,[3],0.9 g
same,KIDNEY_R,[3],0.9 g
same,KIDNEY_TOTAL,[3],1.8 g
same,LIVER,[3],8.4 g
same,ALP,[3],1583 IU/L
same,ALT,[3],36.8 IU/L
same,AST,[3],68.8 IU/L
same,BUN,[3],14 mg/dL
same,CRE,[3],0.2 mg/dL
same,Ca,[3],11 mg/dL
same,Cl,[3],106 meq/L
same,DBIL,[3],0.026 mg/dL
same,GLC,[3],176.4 mg/dL
same,IP,[3],8.3 mg/dL
same,K,[3],4.4 meq/L
same,LDH,[3],101.8 IU/L
same,Na,[3],140.4 meq/L
same,PL,[3],143.2 mg/dL
same,RALB,[3],2.5 g/dL
same,TBIL,[3],0.066 mg/dL
same,TC,[3],79.4 mg/dL
same,TP,[3],5.4 g/dL
same,gamma-GTP,[3],1 IU/L
same,TERMINAL_BW,[4],193.2 g
same,APTT,[4],16.8 s
same,Bas,[4],0%
same,Eos,[4],0.8%
same,Fbg,[4],274.6 mg/dL
same,Hb,[4],12.8 g/dL
same,Ht,[4],38.2%
same,Lym,[4],77.6%
same,MCH,[4],21.2 pg
same,MCHC,[4],33.3%
same,MCV,[4],63.5 fL
same,Mono,[4],2.8%
same,Neu,[4],18%
same,PT,[4],14 s
same,Plat,[4],118.8 x10_4/uL
same,RBC,[4],602 x10_4/ul
same,Ret,[4],9.4%
same,WBC,[4],95.6 x10_2/uL
same,KIDNEY_L,[4],0.9 g
same,KIDNEY_R,[4],0.9 g
same,KIDNEY_TOTAL,[4],1.7 g
same,LIVER,[4],8 g
same,ALP,[4],1465.2 IU/L
same,ALT,[4],33.2 IU/L
same,AST,[4],72 IU/L
same,BUN,[4],11.2 mg/dL
same,CRE,[4],0.2 mg/dL
same,Ca,[4],10.9 mg/dL
same,Cl,[4],105.2 meq/L
same,DBIL,[4],0.018 mg/dL
same,GLC,[4],176 mg/dL
same,IP,[4],8.6 mg/dL
same,K,[4],4.1 meq/L
same,LDH,[4],75.6 IU/L
same,Na,[4],140 meq/L
same,PL,[4],136.8 mg/dL
same,RALB,[4],2.5 g/dL
same,TBIL,[4],0.064 mg/dL
same,TC,[4],71 mg/dL
same,TP,[4],5.3 g/dL
same,gamma-GTP,[4],1 IU/L
same,TERMINAL_BW,[5],185.5 g
same,APTT,[5],17.1 s
same,Bas,[5],0%
same,Eos,[5],1%
same,Fbg,[5],284.8 mg/dL
same,Hb,[5],13.2 g/dL
same,Ht,[5],39.4%
same,Lym,[5],71.4%
same,MCH,[5],20.6 pg
same,MCHC,[5],33.6%
same,MCV,[5],61.3 fL
same,Mono,[5],2.4%
same,Neu,[5],25%
same,PT,[5],14.2 s
same,Plat,[5],119.4 x10_4/uL
same,RBC,[5],643 x10_4/ul
same,Ret,[5],9%
same,WBC,[5],86.7 x10_2/uL
same,KIDNEY_L,[5],0.8 g
same,KIDNEY_R,[5],0.8 g
same,KIDNEY_TOTAL,[5],1.7 g
same,LIVER,[5],6.9 g
same,ALP,[5],1365.8 IU/L
same,ALT,[5],34.8 IU/L
same,AST,[5],76.8 IU/L
same,BUN,[5],12 mg/dL
same,CRE,[5],0.2 mg/dL
same,Ca,[5],10.8 mg/dL
same,Cl,[5],107 meq/L
same,DBIL,[5],0.012 mg/dL
same,GLC,[5],184.4 mg/dL
same,IP,[5],10.2 mg/dL
same,K,[5],4.5 meq/L
same,LDH,[5],64.8 IU/L
same,Na,[5],143.2 meq/L
same,PL,[5],138.8 mg/dL
same,RALB,[5],2.5 g/dL
same,TBIL,[5],0.062 mg/dL
same,TC,[5],77.4 mg/dL
same,TP,[5],5.5 g/dL
same,gamma-GTP,[5],1.2 IU/L
same,TERMINAL_BW,[6],190.2 g
same,APTT,[6],16.2 s
same,Bas,[6],0%
same,Eos,[6],0.8%
same,Fbg,[6],293.4 mg/dL
same,Hb,[6],13.1 g/dL
same,Ht,[6],39.2%
same,Lym,[6],79.4%
same,MCH,[6],20.5 pg
same,MCHC,[6],33.5%
same,MCV,[6],61.1 fL
same,Mono,[6],1.8%
same,Neu,[6],17.8%
same,PT,[6],14 s
same,Plat,[6],117.6 x10_4/uL
same,RBC,[6],642.6 x10_4/ul
same,Ret,[6],8.1%
same,WBC,[6],50.7 x10_2/uL
same,KIDNEY_L,[6],0.8 g
same,KIDNEY_R,[6],0.8 g
same,KIDNEY_TOTAL,[6],1.7 g
same,LIVER,[6],7.2 g
same,ALP,[6],1219.4 IU/L
same,ALT,[6],26.2 IU/L
same,AST,[6],67.6 IU/L
same,BUN,[6],13 mg/dL
same,CRE,[6],0.2 mg/dL
same,Ca,[6],10.7 mg/dL
same,Cl,[6],106.6 meq/L
same,DBIL,[6],0.014 mg/dL
same,GLC,[6],185.2 mg/dL
same,IP,[6],10.5 mg/dL
same,K,[6],4.2 meq/L
same,LDH,[6],57.8 IU/L
same,Na,[6],142.6 meq/L
same,PL,[6],136.6 mg/dL
same,RALB,[6],2.6 g/dL
same,TBIL,[6],0.066 mg/dL
same,TC,[6],78.2 mg/dL
same,TP,[6],5.4 g/dL
same,gamma-GTP,[6],1.4 IU/L
same,TERMINAL_BW,[7],187.2 g
same,APTT,[7],16.8 s
same,Bas,[7],0.2%
same,Eos,[7],1.4%
same,Fbg,[7],285.2 mg/dL
same,Hb,[7],13.3 g/dL
same,Ht,[7],39%
same,Lym,[7],63.8%
same,MCH,[7],21 pg
same,MCHC,[7],34.1%
same,MCV,[7],61.6 fL
same,Mono,[7],2.8%
same,Neu,[7],31.8%
same,PT,[7],14.3 s
same,Plat,[7],100.5 x10_4/uL
same,RBC,[7],634 x10_4/ul
same,Ret,[7],5%
same,WBC,[7],18 x10_2/uL
same,KIDNEY_L,[7],0.9 g
same,KIDNEY_R,[7],0.9 g
same,KIDNEY_TOTAL,[7],1.8 g
same,LIVER,[7],7.4 g
same,ALP,[7],1374 IU/L
same,ALT,[7],27.8 IU/L
same,AST,[7],67.8 IU/L
same,BUN,[7],17 mg/dL
same,CRE,[7],0.2 mg/dL
same,Ca,[7],10.5 mg/dL
same,Cl,[7],107 meq/L
same,DBIL,[7],0.02 mg/dL
same,GLC,[7],178.8 mg/dL
same,IP,[7],9 mg/dL
same,K,[7],4.6 meq/L
same,LDH,[7],55.2 IU/L
same,Na,[7],142 meq/L
same,PL,[7],138.2 mg/dL
same,RALB,[7],2.5 g/dL
same,TBIL,[7],0.068 mg/dL
same,TC,[7],86.2 mg/dL
same,TP,[7],5.3 g/dL
same,gamma-GTP,[7],1 IU/L
